Experimental data reported in patent US6689773B2, “Uracil substituted phenyl sulfamoyl carboxamides” (BASF Aktiengesellschaft, priority 2000, dated 2004).

Assays:
Type in all cases: in vivo
[1] = system: IPOHE, Morningglory, Ivyleaf, Ipomoea hederacea, (L)Jacq.; assay: Preemergence herbicidal evaluation (Example 148); details: rating scale 0-9, two to four weeks after treatment
Description: (§1) The scale is based upon a visual observation of plant stand, vigor, malformation, size, chlorosis and overall plant appearance as compared with a control.
(§2) The herbicidal activity of the compounds of the present invention was evaluated by the following tests wherein the seeds of a variety of monocotyledonous and dicotyledonous plants were separately mixed with potting soil and planted on top of approximately one inch of soil in separate pint cups. After planting, the cups were sprayed with the selected aqueous acetone solution containing test compound in sufficient quantity to provide the equivalent of about 0.125 to 0.250 kg per hectare of test compound per cup. The treated cups were then placed on greenhouse benches, watered and cared for in accordance with conventional greenhouse procedures. From two to four weeks after treatment, the tests were terminated and each cup was examined and rated according to the rating system provided in Example 94. When more than one test was performed for a given compound, the data were averaged.

[2] = system: TRZAW, Winter wheat, Tritium Aestivum, L. (Winter); assay: Preemergence herbicidal evaluation (Example 148); details: rating scale 0-9, two to four weeks after treatment
Description: as §1, §2

[3] = system: ALOMY, Blackgrass, Alopecurus myosuroides; assay: Preemergence herbicidal evaluation (Example 148); details: rating scale 0-9, two to four weeks after treatment
Description: as §1, §2

[4] = system: GLXMA, Soybean, Glycine max, (L.) Merr.; assay: Preemergence herbicidal evaluation (Example 148); details: rating scale 0-9, two to four weeks after treatment
Description: as §1, §2

[5] = system: SETVI, Green foxtail, Setaria viridis, (L.)Beau; assay: Preemergence herbicidal evaluation (Example 148); details: rating scale 0-9, two to four weeks after treatment
Description: as §1, §2

[6] = system: CHEAL, Lambsquarters, Chenopodium album, L. Common; assay: Preemergence herbicidal evaluation (Example 148); details: rating scale 0-9, two to four weeks after treatment
Description: as §1, §2

[7] = system: ABUTH, Velvetleaf, Abutilon theophrasti, Medic.; assay: Preemergence herbicidal evaluation (Example 148); details: rating scale 0-9, two to four weeks after treatment
Description: as §1, §2

[8] = system: DIGSA, Crabgrass, (Hairy) L, Digitaria sanguinalis, (L)Scop; assay: Preemergence herbicidal evaluation (Example 148); details: rating scale 0-9, two to four weeks after treatment
Description: as §1, §2

[9] = system: ZEAMX, Field corn, Zea mays L.; assay: Preemergence herbicidal evaluation (Example 148); details: rating scale 0-9, two to four weeks after treatment
Description: as §1, §2

[10] = system: ECHCG, Barnyardgrass, Echinochloa crusgalli, (L.)Beau; assay: Preemergence herbicidal evaluation (Example 148); details: rating scale 0-9, two to four weeks after treatment
Description: as §1, §2

[11] = system: AMBEL, Ragweed, Common, Ambrosia artemiisifolia, L.; assay: Preemergence herbicidal evaluation (Example 148); details: rating scale 0-9, two to four weeks after treatment
Description: as §1, §2

[12] = system: IPOHE, Morningglory, Ivyleaf, Ipomoea hederacea, (L)Jacq.; assay: Postemergence herbicidal evaluation (Example 147); details: rating scale 0-9, two to three weeks after treatment
Description: (§3) Seedling plants were grown in jiffy flats for about two weeks. The test compounds were dispersed in 80/20 acetone/water mixtures containing 1.0% SUN-IT®II, a methylated seed oil, in sufficient quantities to provide the equivalent of about 0.016 to 0.032 kg per hectare of active compound when applied to the plants through a spray nozzle operating at 40 psi for a predetermined time. After spraying, the plants were placed on greenhouse benches and were cared for in accordance with conventional greenhouse procedures. Approximately two to three weeks after treatment, the seedling plants were examined and rated according to the rating scale (0-9) set forth below. Where more than one test is involved for a given compound, the data are averaged. [table] The scale is based upon a visual observation of plant stand, vigor, malformation, size, chlorosis and overall plant appearance as compared with a control. Plant species employed in these evaluations are reported by header abbreviation, common name and scientific name. [table]

[13] = system: TRZAW, Winter wheat, Tritium Aestivum, L. (Winter); assay: Postemergence herbicidal evaluation (Example 147); details: rating scale 0-9, two to three weeks after treatment
Description: as §3

[14] = system: ALOMY, Blackgrass, Alopecurus myosuroides; assay: Postemergence herbicidal evaluation (Example 147); details: rating scale 0-9, two to three weeks after treatment
Description: as §3

[15] = system: GLXMA, Soybean, Glycine max, (L.) Merr.; assay: Postemergence herbicidal evaluation (Example 147); details: rating scale 0-9, two to three weeks after treatment
Description: as §3

[16] = system: SETVI, Green foxtail, Setaria viridis, (L.)Beau; assay: Postemergence herbicidal evaluation (Example 147); details: rating scale 0-9, two to three weeks after treatment
Description: as §3

[17] = system: CHEAL, Lambsquarters, Chenopodium album, L. Common; assay: Postemergence herbicidal evaluation (Example 147); details: rating scale 0-9, two to three weeks after treatment
Description: as §3

[18] = system: ABUTH, Velvetleaf, Abutilon theophrasti, Medic.; assay: Postemergence herbicidal evaluation (Example 147); details: rating scale 0-9, two to three weeks after treatment
Description: as §3

[19] = system: DIGSA, Crabgrass, (Hairy) L, Digitaria sanguinalis, (L)Scop; assay: Postemergence herbicidal evaluation (Example 147); details: rating scale 0-9, two to three weeks after treatment
Description: as §3

[20] = system: ZEAMX, Field corn, Zea mays L.; assay: Postemergence herbicidal evaluation (Example 147); details: rating scale 0-9, two to three weeks after treatment
Description: as §3

[21] = system: ECHCG, Barnyardgrass, Echinochloa crusgalli, (L.)Beau; assay: Postemergence herbicidal evaluation (Example 147); details: rating scale 0-9, two to three weeks after treatment
Description: as §3

[22] = system: XANST, Cocklebur, Xanthium strumariam; assay: Postemergence herbicidal evaluation (Example 147); details: rating scale 0-9, two to three weeks after treatment
Description: as §3

[23] = system: AMBEL, Ragweed, Common, Ambrosia artemiisifolia, L.; assay: Postemergence herbicidal evaluation (Example 147); details: rating scale 0-9, two to three weeks after treatment
Description: as §3

**Q.** What does the source list for `CCCNS(=O)(=O)NC(=O)c1cc(-n2c(=O)cc(C(F)(F)F)n(C)c2=O)c(F)cc1Cl` [Example 63]?
**A.** Preemergence herbicidal rating IPOHE ([1]; rate 0.125 kg/ha): 9.0; Preemergence herbicidal rating IPOHE ([1]; rate 0.25 kg/ha): 9.0; Preemergence herbicidal rating TRZAW ([2]; rate 0.125 kg/ha): 0.0; Preemergence herbicidal rating TRZAW ([2]; rate 0.25 kg/ha): 0.0; Preemergence herbicidal rating ALMOY ([3]; rate 0.125 kg/ha): 0.0; Preemergence herbicidal rating ALMOY ([3]; rate 0.25 kg/ha): 0.0; Preemergence herbicidal rating GLXMA ([4]; rate 0.125 kg/ha): 1.0; Preemergence herbicidal rating GLXMA ([4]; rate 0.25 kg/ha): 5.0; Preemergence herbicidal rating SETVI ([5]; rate 0.125 kg/ha): 4.0; Preemergence herbicidal rating SETVI ([5]; rate 0.25 kg/ha): 8.0; Preemergence herbicidal rating CHEAL ([6]; rate 0.125 kg/ha): 9.0; Preemergence herbicidal rating CHEAL ([6]; rate 0.25 kg/ha): 9.0; Preemergence herbicidal rating ABUTH ([7]; rate 0.125 kg/ha): 9.0; Preemergence herbicidal rating ABUTH ([7]; rate 0.25 kg/ha): 9.0; Preemergence herbicidal rating DIGSA ([8]; rate 0.125 kg/ha): 3.0; Preemergence herbicidal rating DIGSA ([8]; rate 0.25 kg/ha): 8.0; Preemergence herbicidal rating ZEAMX ([9]; rate 0.125 kg/ha): 0.0; Preemergence herbicidal rating ZEAMX ([9]; rate 0.25 kg/ha): 0.0; Preemergence herbicidal rating ECHCG ([10]; rate 0.125 kg/ha): 4.0; Preemergence herbicidal rating ECHCG ([10]; rate 0.25 kg/ha): 9.0; Preemergence herbicidal rating AMBEL ([11]; rate 0.125 kg/ha): 9.0; Preemergence herbicidal rating AMBEL ([11]; rate 0.25 kg/ha): 9.0; Postemergence herbicidal rating IPOHE ([12]; rate 0.016 kg/ha): 9.0; Postemergence herbicidal rating IPOHE ([12]; rate 0.032 kg/ha): 9.0; Postemergence herbicidal rating TRZAW ([13]; rate 0.016 kg/ha): 6.0; Postemergence herbicidal rating TRZAW ([13]; rate 0.032 kg/ha): 7.0; Postemergence herbicidal rating ALMOY ([14]; rate 0.016 kg/ha): 2.0; Postemergence herbicidal rating ALMOY ([14]; rate 0.032 kg/ha): 2.0; Postemergence herbicidal rating GLXMA ([15]; rate 0.016 kg/ha): 8.0; Postemergence herbicidal rating GLXMA ([15]; rate 0.032 kg/ha): 8.0; Postemergence herbicidal rating SETVI ([16]; rate 0.016 kg/ha): 7.0; Postemergence herbicidal rating SETVI ([16]; rate 0.032 kg/ha): 9.0; Postemergence herbicidal rating CHEAL ([17]; rate 0.016 kg/ha): 7.0; Postemergence herbicidal rating CHEAL ([17]; rate 0.032 kg/ha): 9.0; Postemergence herbicidal rating ABUTH ([18]; rate 0.016 kg/ha): 9.0; Postemergence herbicidal rating ABUTH ([18]; rate 0.032 kg/ha): 9.0; Postemergence herbicidal rating DIGSA ([19]; rate 0.016 kg/ha): 4.0; Postemergence herbicidal rating DIGSA ([19]; rate 0.032 kg/ha): 4.0; Postemergence herbicidal rating ZEAMX ([20]; rate 0.016 kg/ha): 7.0; Postemergence herbicidal rating ZEAMX ([20]; rate 0.032 kg/ha): 8.0; Postemergence herbicidal rating ECHCG ([21]; rate 0.016 kg/ha): 4.0; Postemergence herbicidal rating ECHCG ([21]; rate 0.032 kg/ha): 6.0; Postemergence herbicidal rating XANST ([22]; rate 0.016 kg/ha): 9.0; Postemergence herbicidal rating XANST ([22]; rate 0.032 kg/ha): 9.0; Postemergence herbicidal rating AMBEL ([23]; rate 0.016 kg/ha): 9.0; Postemergence herbicidal rating AMBEL ([23]; rate 0.032 kg/ha): 9.0
